Data: ChEMBL document CHEMBL3259816, “Interactions of cyclic and non-cyclic naphthalene diimide derivatives with different nucleic acids” (Bioorg Med Chem, 2014)
Active and inactive are the calls of the source. The calls are words filed in the database; no cut-off is given here.

Assays:
[1] = Binding affinity to poly (dA-dT)2 dsDNA (unknown origin) assessed as change in melting temperature at 1:0.1 DNA/ligand ratio by absorbance melting method in presence of Na+
[2] = tested on: Nucleic Acid; assay: Binding affinity to double strand 5'-GGGAGGTTTCGC-3' and 5'-GCGAAACCTCCC-3' DNA (unknown origin) assessed as DNA intercalation at 0.75 to 11.25 uM by circular dichroism analysis in presence of K+; format: nucleic-acid assay
[3] = tested on: Escherichia coli; assay: Binding affinity to Escherichia coli pUC19 DNA assessed as formation of supercoiled DNA at 1 to 5 uM after 1 hr by agarose gel electrophoresis
[4] = Binding affinity to poly (dA-dT)2 dsDNA (unknown origin) assessed as change in melting temperature at 1:0.05 DNA/ligand ratio by absorbance melting method in presence of Na+
[5] = Binding affinity to poly (dA-dT)2 dsDNA (unknown origin) assessed as change in melting temperature at 1:0.3 DNA/ligand ratio by absorbance melting method in presence of Na+
[6] = Binding affinity to double strand 5'-GGGAGGTTTCGC-3' and 5'-GCGAAACCTCCC-3' DNA (unknown origin) by Benesi-Hildebrand method in presence of Na+
[7] = tested on: Escherichia coli; assay: Binding affinity to Escherichia coli pUC19 DNA assessed as formation of supercoiled DNA at 0.4 to 2.4 uM after 1 hr by agarose gel electrophoresis
[8] = tested on: Nucleic Acid; assay: Binding affinity to poly (dA-dT)2 dsDNA (unknown origin) assessed as DNA intercalation at 5 to 50 uM by circular dichroism analysis in presence of NaCl; format: nucleic-acid assay
[9] = Binding affinity to 5'-AGGG(TTAGGG)3-3' DNA (unknown origin) by Benesi-Hildebrand method in presence of K+
[10] = Binding affinity to poly (dA-dT)2 dsDNA (unknown origin) assessed as change in melting temperature at 1:0.15 DNA/ligand ratio by absorbance melting method in presence of Na+
[11] = tested on: Nucleic Acid; assay: Binding affinity to double strand 5'-GGGAGGTTTCGC-3' and 5'-GCGAAACCTCCC-3' DNA (unknown origin) assessed as DNA intercalation at 0.75 to 11.25 uM by circular dichroism analysis in presence of Na+; format: nucleic-acid assay
[12] = Inhibition of telomerase (unknown origin) incubated for 60 mins at 30 degC followed by 5 mins at 95 degC by TRAP assay; set-up: species or system Homo sapiens
[13] = tested on: Nucleic Acid; assay: Binding affinity to double strand 5'-GGGAGGTTTCGC-3' and 5'-GCGAAACCTCCC-3' DNA (unknown origin) assessed as DNA intercalation at 0.5 to 6.75 uM by circular dichroism analysis in presence of Na+; format: nucleic-acid assay
[14] = Binding affinity to double strand 5'-GGGAGGTTTCGC-3' and 5'-GCGAAACCTCCC-3' DNA (unknown origin) assessed as change in melting temperature by spectrophotometry in presence of Na+
[15] = tested on: Calf thymus DNA; assay: Binding affinity to calf thymus DNA assessed as DNA intercalation at 5 to 50 uM by circular dichroism analysis in presence of NaCl; format: nucleic-acid assay; settings: Bos taurus
[16] = Binding affinity to 5'-AGGG(TTAGGG)3-3' DNA (unknown origin) assessed as change in melting temperature by spectropolarimetry in presence of Na+
[17] = Binding affinity to 5'-AGGG(TTAGGG)3-3' DNA (unknown origin) by Benesi-Hildebrand method in presence of Na+
[18] = Binding affinity to double strand 5'-GGGAGGTTTCGC-3' and 5'-GCGAAACCTCCC-3' DNA (unknown origin) assessed as change in melting temperature by spectrophotometry in presence of K+
[19] = tested on: Nucleic Acid; assay: Binding affinity to poly (dG-dC)2 dsDNA (unknown origin) assessed as DNA intercalation at 5 to 50 uM by circular dichroism analysis in presence of NaCl; format: nucleic-acid assay
[20] = Binding affinity to double strand 5'-GGGAGGTTTCGC-3' and 5'-GCGAAACCTCCC-3' DNA (unknown origin) by Benesi-Hildebrand method in presence of K+
[21] = Binding affinity to 5'-AGGG(TTAGGG)3-3' DNA (unknown origin) assessed as assessed as G-quadruplex formation at 2:1 DNA/ligand molar ratio by circular dichroism analysis in presence of KCl
[22] = Stabilization of 5'-AGGG(TTAGGG)3-3' DNA (unknown origin) assessed as G-quadruplex formation at 1:0.3 to 1:4.5 DNA/ligand molar ratio by circular dichroism analysis in presence of KCl
[23] = Stabilization of 5'-AGGG(TTAGGG)3-3' DNA (unknown origin) assessed as G-quadruplex formation at 1:0.3 to 1:4.5 DNA/ligand molar ratio by circular dichroism analysis in presence of NaCl
[24] = Binding affinity to 5'-AGGG(TTAGGG)3-3' DNA (unknown origin) assessed as change in melting temperature by spectropolarimetry in presence of K+
[25] = tested on: Nucleic Acid; assay: Binding affinity to double strand 5'-GGGAGGTTTCGC-3' and 5'-GCGAAACCTCCC-3' DNA (unknown origin) assessed as DNA intercalation at 0.5 to 6.75 uM by circular dichroism analysis in presence of K+; format: nucleic-acid assay

SMILES	ΔTm [1]	Activity [2]	Activity [3]	ΔTm [4]	ΔTm [5]	Kb [6]	Activity [7]	Activity [8]	Kb [9]	ΔTm [10]	Activity [11]	EC50 [12]	Activity [13]	ΔTm [14]	Activity [15]	ΔTm [16]	Kb [17]	ΔTm [18]	Activity [19]	Kb [20]	also measured
CN(C)CCCN1C(=O)c2ccc3c4c(ccc(c24)C1=O)C(=O)N(CCCN(C)C)C3=O	4 °C	Active	Active	2 °C	13 °C	1 ×10⁶ /M	Active	Active	1.4 ×10⁶ /M	7 °C	Active	6 µM	Active	5 °C	Active	1 °C	0.7 ×10⁶ /M	5 °C	Active	1 ×10⁶ /M	Activity [21]: Active; Activity [22]: Active; Activity [23]: Active; ΔTm [24]: 6 °C; Activity [25]: Active
O=C1NCCCN2CCN(CCCN3C(=O)c4ccc5c6c(ccc(c46)C3=O)C(=O)N(CCCN3CCN(CCCNC(=O)c4ccc1cc4)CC3)C5=O)CC2	14 °C	Active	Active	9 °C	24 °C	2.5 ×10⁶ /M	Active	Active	3.7 ×10⁶ /M	18 °C	Active	0.35 µM	Active	10 °C	Active	3 °C	0.9 ×10⁶ /M	10 °C	Active	2.6 ×10⁶ /M	Activity [21]: Active; Activity [22]: Active; Activity [23]: Active; ΔTm [24]: 9 °C; Activity [25]: Active
